Experimental data taken from paper PMC10766610, “DCAF1-based PROTACs with activity against clinically validated targets overcoming intrinsic- and acquired-degrader resistance” (Nature Communications, 2024).
Where two headings read alike, the source gives them in different places.

Legend:
[1] = target: DCAF1(WDR) + BRD9-BD(130-250) (Homo sapiens, UniProt Q9H8M2+Q9Y4B6, E1398S); assay: SPR ternary binding assay, immobilized DCAF1(WDR), BRD9-BD(130-250) in buffer
Experimental: Surface plasmon resonance (SPR) experiments were performed on Biacore T200 and 8 K+ instruments (Cytiva). […] Binary complexes were analyzed with a kinetic 1:1 fit model to obtain KD values. The fit of apparent steady state RU intensities of the ternary complexes was performed using a bell-shaped curve algorithm implemented in Graphpad Prism. […] Residence times (t1/2) were calculated by the inversion of the off-rate.

TMD8 cells = assay: Whole proteomics profile, DBt-10 vs (19), TMD8 cells; assay type: cell-based, human; conditions: 5 µM DBt-10 vs 5 µM (19), 6 h
Experimental: HEK293T and TMD8 cells were cultured according to protocol and 3 million cells were plated per sample and recovered for 24 h. The following day, cells were treated with indicated compounds at corresponding concentrations for 6 h. Cells were then harvested and washed 2× with PBS before removing all liquid and snap freezing in liquid nitrogen before sample preparation for proteomics.
TMT-labeled peptides were generated with the iST-NHS kit (PreOmics) and TMT10plex (duplicates per condition) or TMT18plex (triplicates per condition) reagent (Thermo Fisher Scientific). Equal amounts of labeled peptides were pooled and separated on a high pH fractionation system with a water-acetonitrile gradient containing 10 mM ammonium formate, pH 11[88]. Alternating rows of the resulting 72 fractions were pooled into 24 samples, dried and resuspended in water containing 0.1% formic acid.
The LC-MS analysis was carried out on an EASY-nLC 1200 system coupled to an Orbitrap Fusion Lumos Tribrid mass spectrometer (Thermo Fisher Scientific). […]
LC-MS raw files were analyzed with Proteome Discoverer 2.4 (Thermo Fisher Scientific). […] TMT reporter ions of the MS3 spectra were integrated with a 20 ppm tolerance and the reporter ion intensities were used for quantification. […] Protein relative quantification was performed using an in-house developed R (v.3.6) script. […]

CSK = target: T1, CSK (Homo sapiens, UniProt P41240); assay: Immunoblot of CSK in HEK293T cells; assay type: cell-based; conditions: 6 h
T1 construct: host or cells: HEK293T
T1 sequence (P41240 whole entry): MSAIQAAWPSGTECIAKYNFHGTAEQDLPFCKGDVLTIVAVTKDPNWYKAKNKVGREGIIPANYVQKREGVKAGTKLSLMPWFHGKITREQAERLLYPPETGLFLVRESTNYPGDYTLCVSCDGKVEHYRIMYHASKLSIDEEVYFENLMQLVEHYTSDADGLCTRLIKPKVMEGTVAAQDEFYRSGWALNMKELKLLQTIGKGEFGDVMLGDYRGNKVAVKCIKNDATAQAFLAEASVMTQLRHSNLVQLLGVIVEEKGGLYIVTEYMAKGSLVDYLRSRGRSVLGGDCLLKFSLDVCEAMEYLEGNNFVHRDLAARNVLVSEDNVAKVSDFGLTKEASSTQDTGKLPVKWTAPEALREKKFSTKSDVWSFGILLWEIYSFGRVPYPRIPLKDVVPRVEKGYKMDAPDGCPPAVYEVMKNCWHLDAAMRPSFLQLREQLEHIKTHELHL
Experimental: (§1) Whole cell lysates for immunoblotting were prepared by pelleting cells at 4 °C (300 g) for 3 min. Cell pellets were then washed 1x with PBS and resuspended in RIPA lysis buffer (VWR, cat # 97063-270) supplemented with protease (Thermo Scientific, cat # A32955) and phosphatase (Thermo Scientific, cat # A32957) inhibitor tablets. Lysates were clarified at 16,000 × g for 15 min at 4 °C prior to quantification by Lowry assay (Bio-Rad cat # 5000113 and cat # 5000114). Whole-cell lysates were loaded into 4–20% Criterion TGX Precast 18 well gels (Bio-Rad, cat # 5671094) and separated by electrophoreses at 120 V for 1 h. The gels were transferred to a nitrocellulose membrane using the Trans-Blot Turbo (Bio-Rad) for 7 min and then blocked for 1 h at room temperature in Odyssey blocking buffer (LICOR Biosciences, cat # 927-50000). Membranes were probed with the appropriate primary antibodies (diluted 1:1000) overnight at 4 °C in 20% Odyssey blocking buffer in 1x TBST. Membranes were washed three times with 1x TBST (5 min per wash), and then incubated with IRDye goat anti-mouse (LICOR, cat # 926-32210) or goat anti-rabbit (LICOR, cat # 926-32211) secondary antibody diluted 1:10,000 in 20% Odyssey blocking buffer for 1 h at room temperature. After three 5-min washes with 1x TBST, the immunoblots were visualized using the ODYSSEY Infrared Imaging System (LICOR). […]

ABL1 = target: T2, ABL1 (Homo sapiens, UniProt P00519); assay: Immunoblot of ABL1 in HEK293T cells; assay type: cell-based; conditions: 6 h
T2 construct: host or cells: HEK293T
T2 sequence (P00519 whole entry): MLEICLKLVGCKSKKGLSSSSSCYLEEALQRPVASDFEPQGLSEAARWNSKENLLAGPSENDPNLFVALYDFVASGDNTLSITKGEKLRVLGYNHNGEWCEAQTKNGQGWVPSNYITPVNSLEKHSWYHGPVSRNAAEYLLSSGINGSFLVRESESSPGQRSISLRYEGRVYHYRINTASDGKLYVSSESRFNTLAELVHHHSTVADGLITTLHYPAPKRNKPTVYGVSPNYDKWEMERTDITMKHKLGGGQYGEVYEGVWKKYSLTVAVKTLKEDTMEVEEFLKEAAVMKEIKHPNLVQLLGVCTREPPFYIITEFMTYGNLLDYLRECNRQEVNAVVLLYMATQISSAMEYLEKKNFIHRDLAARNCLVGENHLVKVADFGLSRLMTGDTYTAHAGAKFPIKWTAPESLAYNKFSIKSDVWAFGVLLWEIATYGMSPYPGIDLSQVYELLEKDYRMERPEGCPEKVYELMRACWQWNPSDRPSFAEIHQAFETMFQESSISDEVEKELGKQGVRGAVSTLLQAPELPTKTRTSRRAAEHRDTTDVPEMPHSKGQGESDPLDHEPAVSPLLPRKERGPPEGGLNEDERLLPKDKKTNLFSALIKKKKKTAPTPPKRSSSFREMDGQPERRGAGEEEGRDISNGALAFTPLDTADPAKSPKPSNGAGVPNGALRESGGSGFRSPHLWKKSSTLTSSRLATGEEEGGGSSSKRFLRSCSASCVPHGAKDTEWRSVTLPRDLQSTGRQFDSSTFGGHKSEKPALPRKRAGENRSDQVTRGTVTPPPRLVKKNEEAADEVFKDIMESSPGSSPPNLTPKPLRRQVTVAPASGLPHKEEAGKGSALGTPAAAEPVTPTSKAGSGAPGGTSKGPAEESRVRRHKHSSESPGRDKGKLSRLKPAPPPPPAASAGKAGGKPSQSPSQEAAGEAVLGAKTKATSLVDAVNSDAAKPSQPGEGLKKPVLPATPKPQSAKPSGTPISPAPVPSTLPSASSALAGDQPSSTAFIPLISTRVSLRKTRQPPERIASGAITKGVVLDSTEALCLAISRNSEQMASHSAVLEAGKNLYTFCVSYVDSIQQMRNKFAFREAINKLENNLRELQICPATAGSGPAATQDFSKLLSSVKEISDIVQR
Experimental: as §1

Chain of DCAF1(WDR) + BRD9-BD(130-250) (Q9Y4B6 1073-1399 E1398S): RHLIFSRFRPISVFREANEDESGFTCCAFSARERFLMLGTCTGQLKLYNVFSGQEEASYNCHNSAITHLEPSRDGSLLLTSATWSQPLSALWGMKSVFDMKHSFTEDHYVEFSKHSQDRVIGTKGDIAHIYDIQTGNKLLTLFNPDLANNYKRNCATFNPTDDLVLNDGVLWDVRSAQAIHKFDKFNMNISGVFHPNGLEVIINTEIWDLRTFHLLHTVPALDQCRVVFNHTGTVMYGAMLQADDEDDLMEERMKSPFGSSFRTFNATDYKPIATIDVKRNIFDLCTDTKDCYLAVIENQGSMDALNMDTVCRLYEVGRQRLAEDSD
Chain of DCAF1(WDR) + BRD9-BD(130-250) (Q9H8M2 130-250): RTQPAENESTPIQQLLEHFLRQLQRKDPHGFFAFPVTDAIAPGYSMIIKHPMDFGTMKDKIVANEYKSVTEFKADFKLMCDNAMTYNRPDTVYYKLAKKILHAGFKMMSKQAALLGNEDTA

`COc1cc(-c2cn(C)c(=O)c3cnccc23)c(OC)cc1CN1CCC(OCCCCCC(=O)N2CCN(c3ccc4c(NCCN)nc(C5(c6ccc(Cl)cc6)CCCCC5)nc4c3)CC2)CC1` [DBr-1] was tested, and the Kd ([1]; Kd1, apparent KD of first sigmoidal transition, in the presence of 0.2 µM BRD9-BD(130-250)) was 0.02 µM, the Kd ([1]; SPR KD [μM], + BRD9, with additional BRD9-BD(130-250)) was 0.005 µM and the Kd ([1]; read-out: Kd2, apparent KD of second sigmoidal transition, in the presence of 0.2 µM BRD9-BD(130-250)) was 6.11 µM.
With `Cc1c(NC(=O)N2CC(O)(CC(C)(C)C)C2)cc(F)cc1-c1ncnc2[nH]c(-c3cnn(CC(=O)N4CCC5(CC4)CN(CCNC(=O)CCCC(=O)N4CCN(c6ccc7c(NCCN)nc(C8(c9ccc(Cl)cc9)CCCCC8)nc7c6)CC4)CCO5)c3)cc12` [DBt-10] the “only other protein with significantly reduced abundance (proteomics)” value (TMD8 cells) was “LIM domain kinase 1 (LIMK1)” and the “strongest reduced protein (proteomics)” value (TMD8 cells) was “BTK”.
`Cc1nc(Nc2ncc(C(=O)Nc3c(C)cccc3Cl)s2)cc(N2CCC(OC3CCN(CCCCCCCC(=O)N4CCN(c5ccc6c(NCCN)nc(C7(c8ccc(Cl)cc8)CCCCC7)nc6c5)CC4)CC3)CC2)n1` [DDa-1] was tested, and the CSK protein levels (CSK) was “significant reduction in protein levels” and the ABL1 protein levels (ABL1) was “not”.
